Results published in patent US9682938B2, “Pyrazolone derivatives as nitroxyl donors” (Cardioxyl Pharmaceuticals, Inc., priority 2014, dated 2017).

Experiments:
Format in all cases: in vitro ADME
[1] = In vitro plasma stability, dog plasma; conditions: male, pH 7.4, 5 μM, 37° C., sampling 0-360 minutes, read-out: T1/2 Dog
Method: (§1) Certain compounds from Table 1 were tested for their stability in plasma. The assay system comprised plasma from rat, dog or human (at least 3 donors, male, pooled) at pH 7.4, and (ii) an anticoagulant (sodium heparin or sodium citrate). Each test compound (5 μM) was incubated in plasma at 37° C. on a THERMOMIXER® with shaking. Three samples (n=3) were taken at each of seven sampling time points: 0, 10, 30, 60, 90, 180 and 360 minutes. The samples were immediately combined with 3 volumes (i.e., 3 times the volume of plasma) of acetonitrile containing 1% formic acid and an internal standard to terminate the reaction. AB SCIEX API 3000 LC-MS/MS analysis of the test compounds was performed without a standard curve. Plasma half-lives (T1/2) of the test compounds were determined from graphs of the percent remaining values using the peak area response ratio.

[2] = In vitro plasma stability, rat plasma; conditions: male, pH 7.4, 5 μM, 37° C., sampling 0-360 minutes, read-out: T1/2 Rat
Method: as §1

[3] = In vitro plasma stability, human plasma; conditions: male, pH 7.4, 5 μM, 37° C., sampling 0-360 minutes, read-out: T1/2 Human
Method: as §1

SMILES	half-life at 5 μM [1] [min]	half-life at 5 μM [2] [min]	half-life at 5 μM [3] [min]
CN1N=C(c2ccc(F)cc2)C(C)(NO)C1=O (stereo not drawn) [Compound 5, 5-(4-fluorophenyl)-4-(hydroxyamino)-2,4-dimethyl-2,4-dihydro-3H-pyrazol-3-one]	172	78	108
Cc1cc(C)cc(C2=NN(C)C(=O)C2(C)NO)c1 (stereo not drawn) [Compound 7, 5-(3,5-dimethylphenyl)-4-(hydroxyamino)-2,4-dimethyl-2,4-dihydro-3H-pyrazol-3-one]	117	34	104
CC(C)N1N=C(c2ccccc2Cl)C(C)(NO)C1=O (stereo not drawn) [Compound 8, 5-(2-chlorophenyl)-4-(hydroxyamino)-2-iso-propyl-4-methyl-2,4-dihydro-3H-pyrazol-3-one]	170		
CN1N=C(c2cc(Cl)cc(Cl)c2)C(C)(NO)C1=O (stereo not drawn) [Compound 9, 5-(3,5-dichlorophenyl)-4-(hydroxyamino)-2,4-dimethyl-2,4-dihydro-3H-pyrazol-3-one]	59	17	43
CO/N=C(\C)C1(NO)C(=O)N(C)N=C1C(C)(C)C (stereo not drawn) [Compound 10, 5-(tert-butyl)-4-(hydroxyamino)-4-(1-(methoxyimino)ethyl)-2-methyl-2,4-dihydro-3H-pyrazol-3-one]	40	21	12
CN1N=C(c2ccc([S+](C)[O-])cc2)C(C)(NO)C1=O (stereo not drawn) [Compound 11, 4-(hydroxyamino)-2,4-dimethyl-5-(4-(methylsulfinyl)phenyl)-2,4-dihydro-3H-pyrazol-3-one]	39	88	65
CN1N=C(c2ccc(F)cc2Cl)C(C)(NO)C1=O (stereo not drawn) [Compound 12, 5-(2-chloro-4-fluorophenyl)-4-(hydroxyamino)-2,4-dimethyl-2,4-dihydro-3H-pyrazol-3-one]	28	20	18
CO/N=C(\C)C1(NO)C(=O)N(c2ccccc2)N=C1C(C)C (stereo not drawn) [Compound 16, 4-(hydroxyamino)-5-iso-propyl-4-(1-(methoxyimino)ethyl)-2-phenyl-2,4-dihydro-3H-pyrazol-3-one]	8		
CO/N=C(\C)C1(NO)C(=O)N(c2ccc(Br)cc2)N=C1C(C)C (stereo not drawn) [Compound 17, 2-(4-bromophenyl)-4-(hydroxyamino)-5-iso-propyl-4-(1-(methoxyimino)ethyl)-2,4-dihydro-3H-pyrazol-3-one]	< 1		
CO/N=C(\C)C1(NO)C(=O)N(c2ccccc2)N=C1C(C)(C)C (stereo not drawn) [Compound 18, 5-(tert-butyl)-4-(hydroxyamino)-4-(1-(methoxyimino)ethyl)-2-phenyl-2,4-dihydro-3H-pyrazol-3-one]	13	17	26
COc1ccc(C2=NN(C)C(=O)C2(C)NO)cc1F (stereo not drawn) [Compound 19, 5-(3-fluoro-4-methoxyphenyl)-4-(hydroxyamino)-2,4-dimethyl-2,4-dihydro-3H-pyrazol-3-one]	95	90	163
CO/N=C(\C)C1(NO)C(=O)N(C)N=C1C1CC1 (stereo not drawn) [Compound 20, 5-cyclopropyl-4-(hydroxyamino)-4-(1-(methoxyimino)ethyl)-2-methyl-2,4-dihydro-3H-pyrazol-3-one]	20		
CN1N=C(c2ccccc2[S+](C)[O-])C(C)(NO)C1=O (stereo not drawn) [Compound 21, 4-(hydroxyamino)-2,4-dimethyl-5-(2-(methylsulfinyl)phenyl)-2,4-dihydro-3H-pyrazol-3-one]	24	36	41
CO/N=C(\C)C1(NO)C(=O)N(C(C)C)N=C1C(C)(C)C (stereo not drawn) [Compound 28, 5-(tert-butyl)-4-(hydroxyamino)-2-iso-propyl-4-(1-(methoxyimino)ethyl)-2,4-dihydro-3H-pyrazol-3-one]	87		
CC1(NO)C(=O)N(c2ccccc2)N=C1c1ccccc1F (stereo not drawn) [Compound 29, 5-(2-fluorophenyl)-4-(hydroxyamino)-4-methyl-2-phenyl-2,4-dihydro-3H-pyrazol-3-one]	58		
CC1(NO)C(=O)N(c2ccc(Br)cc2)N=C1c1ccccc1Cl (stereo not drawn) [Compound 44, 1-(4-bromophenyl)-3-(2-chlorophenyl)-4-(hydroxyamino)-4-methyl-1H-pyrazol-5(4H)-one]	26		
CC1=NN(c2ccc(Br)cc2)C(=O)C1(NO)c1ccccc1 (stereo not drawn) [Compound 47, 1-(4-bromophenyl)-4-(hydroxyamino)-3-methyl-4-phenyl-1H-pyrazol-5(4H)-one]	11		
CC1(NO)C(=O)N(c2ccc(Br)cc2)N=C1c1ccccc1 (stereo not drawn) [Compound 50, 1-(4-bromophenyl)-4-(hydroxyamino)-4-methyl-3-phenyl-1H-pyrazol-5(4H)-one]	356		
CO/N=C(\C)C1(NO)C(=O)N(C)N=C1c1ccc(C(F)(F)F)cc1 (stereo not drawn) [Compound 52, 4-(hydroxyamino)-4-(1-(methoxyimino)ethyl)-1-methyl-3-(4-(trifluoromethyl)phenyl)-1H-pyrazol-5(4H)-one]	8		

SMILES	half-life at 5 μM [1] [min]	half-life at 5 μM [2] [min]	half-life at 5 μM [3] [min]
CN1N=C(c2cccc(Cl)c2)C(C)(NO)C1=O (stereo not drawn) [Compound 54, 3-(3-chlorophenyl)-4-(hydroxyamino)-1,4-dimethyl-1H-pyrazol-5(4H)-one]	159		
COc1ccccc1C1=NN(C)C(=O)C1(C)NO (stereo not drawn) [Compound 55, 4-(hydroxyamino)-3-(2-methoxyphenyl)-1,4-dimethyl-1H-pyrazol-5(4H)-one]	116		
CN1N=C(c2ccccc2OC(F)(F)F)C(C)(NO)C1=O (stereo not drawn) [Compound 56, 4-(hydroxyamino)-1,4-dimethyl-3-(2-(trifluoromethoxy)phenyl)-1H-pyrazol-5(4H)-one]	69		
CN1N=C(c2cccc(Cl)c2Cl)C(C)(NO)C1=O (stereo not drawn) [Compound 57, 3-(2,3-dichlorophenyl)-4-(hydroxyamino)-1,4-dimethyl-1H-pyrazol-5(4H)-one]	15		
CN1N=C(c2ccc(Cl)cc2Cl)C(C)(NO)C1=O (stereo not drawn) [Compound 58, 3-(2,4-dichlorophenyl)-4-(hydroxyamino)-1,4-dimethyl-1H-pyrazol-5(4H)-one]	19		
CN1N=C(c2ccccc2C(F)(F)F)C(C)(NO)C1=O (stereo not drawn) [Compound 60, 4-(hydroxyamino)-1,4-dimethyl-3-(2-(trifluoromethyl)phenyl)-1H-pyrazol-5(4H)-one]	49		
CC1(NO)C(=O)N(c2ccccc2)N=C1C(F)(F)F (stereo not drawn) [Compound 61, 4-(hydroxyamino)-4-methyl-1-phenyl-3-(trifluoromethyl)-1H-pyrazol-5(4H)-one]	> 360		
CCOc1cc(F)ccc1C1=NN(C)C(=O)C1(C)NO (stereo not drawn) [Compound 62, 3-(2-ethoxy-4-fluorophenyl)-4-(hydroxyamino)-1,4-dimethyl-1H-pyrazol-5(4H)-one]	44	114	
CO/N=C(\C)C1(NO)C(=O)N(C)N=C1C(C)C (stereo not drawn) [Compound 63, 4-(hydroxyamino)-3-isopropyl-4-(1-(methoxyimino)ethyl)-1-methyl-1H-pyrazol-5(4H)-one]	> 360		
CC1=NN(C)C(=O)C1(NO)c1ccc([S+](C)[O-])cc1 (stereo not drawn) [Compound 65, 4-(hydroxyamino)-1,3-dimethyl-4-(4-(methylsulfinyl)phenyl)-1H-pyrazaol-5(4H)-one]	8		
COc1ccc(C2(NO)C(=O)N(C)N=C2C)cc1C (stereo not drawn) [Compound 76, 4-(Hydroxyamino)-4-(4-methoxy-3-methylphenyl)-1,3-dimethyl-4,5-dihydro-1H-pyrazol-5-one]	21		
CN1N=C(c2ccc(C(C)(C)C)cc2)C(C)(NO)C1=O (stereo not drawn) [Compound 91, 3-(4-tert-Butylphenyl)-4-(hydroxyamino)-1,4-dimethyl-4,5-dihydro-1H-pyrazol-5-one]	226		
CN1N=C(c2ccc(C(=O)NCC(=O)O)cc2)C(C)(NO)C1=O (stereo not drawn) [Compound 95, 2-({4-[4-(Hydroxyamino)-1,4-dimethyl-5-oxo-4,5-dihydro-1H-pyrazol-3-yl]phenyl}formamido)acetic acid]	120		
CC1=NN(C)C(=O)C1(NO)c1cccc(F)c1 (stereo not drawn) [Compound 96, 4-(3-Fluorophenyl)-4-(hydroxyamino)-1,3-dimethyl-4,5-dihydro-1H-pyrazol-5-one]	6		
CC1=NN(C)C(=O)C1(NO)c1cccc(Cl)c1 (stereo not drawn) [Compound 99, 4-(3-Chlorophenyl)-4-(hydroxyamino)-1,3-dimethyl-4,5-dihydro-1H-pyrazol-5-one]	4		
CC1=NN(C)C(=O)C1(NO)/C(C)=N/Oc1ccccc1 (stereo not drawn) [Compound 102, 4-(Hydroxyamino)-1,3-dimethyl-4-[1-(phenoxyimino)ethyl]-4,5-dihydro-1H-pyrazol-5-one]	< 1		
CC1=NN(C)C(=O)C1(NO)/C(C)=N/OCc1ccccc1 (stereo not drawn) [Compound 103, 4-(Hydroxyamino)-1,3-dimethyl-4-[1-(benzyloxyimino)ethyl]-4,5-dihydro-1H-pyrazol-5-one]	3		
CO/N=C(\C)C1(NO)C(=O)N(c2ccccc2)N=C1Sc1ccccc1 (stereo not drawn) [Compound 128, 4-(Hydroxyamino)-4-[1(methoxyimino)ethyl]-1-phenyl-3-(phenylsulfanyl)-4,5-dihydro-1H-pyrazol-5-one]	3	7	
